melting point [°C] | SMILES
165 | N#CC1=C(c2cccs2)Nc2n[nH]cc2C1c1ccccc1[N+](=O)[O-] (stereo unspecified)
150 | Nc1cc(O)cc(O)c1
124 to 126 | CCC(Oc1cccc(N(C)C)c1)C(=O)OC1CC(O)C=C2C=CC(C)C(CCC3CC(O)CC(=O)O3)C21 (mixture of isomers)
206 to 207 | O=c1c2ccc(O)cc2[nH]n1Cc1ccccc1
204 to 206 | Cn1c(C(=O)O)c(Oc2ccc(Cl)cc2N)c2ccccc21
216 | Cc1cc2cc(CN3CCC(CC(=O)N4CCCCC4)CC3)cnc2cc1NC(=O)c1ccc(-c2ccc(F)cc2)cc1
162 to 165 | O=C(O)Cc1ccc(NC(=O)C(Cn2ccnc2)NS(=O)(=O)c2ccc(F)cc2)cc1 (racemic)
221 to 223 | COc1cccc2c1nc(C(F)F)n2-c1nc(N2CCNCC2)nc(N2CC3CCC(C2)O3)n1
136 to 138 | CC#Cc1ccc(NC(=O)c2cccnc2Cl)cc1
173 to 174 | O=C(O)CCCc1cc2nc(Cl)ccc2n1S(=O)(=O)c1cccc(Cl)c1Cl
91 to 93 | CCCCOC(=O)c1cc([N+](=O)[O-])ccc1N
224 to 226 | Cc1cc(C)n(-c2nc(Nc3ccc(Cl)c(Cl)c3)c3ccccc3n2)n1
247 | Nc1ccc(NCCc2ccccc2)cc1
139 to 141 | COc1cccc(C23CCCC=C2C(=O)N(C)C(=O)C3)c1 (stereo unspecified)
182 | CCOc1ccc(C(=O)N(C)Cc2cccc(-c3ccc(CC4SC(=O)NC4=O)cc3)c2)cc1 (stereo unspecified)
168 to 172 | Cc1cc(-c2c3ccccc3c(Br)c3sc(C)c(C)c23)cc(C)c1OS(=O)(=O)c1ccc(C(=O)OC(C)(C)C)c(O)c1
129 to 130 | O=[N+]([O-])O[C@H]1COc2c(O)cccc2C1
65 to 67 | O=C(NCCCl)Oc1ccccc1
233 to 236 | O=S1(=O)NC(C2CCCCC2)Nc2ccc(-c3ccccc3Cl)cc21 (stereo unspecified)
71 | COc1cc(N)ccc1OC[C@H](O)C1CC1
37 to 40 | CCNC(=O)c1ccccc1NC(C)(C)C
147 to 148 | CN(C)C(=O)c1ccc2c(c1)CC(=O)N2
118 | CCCCCCCC(O)C(O)Cc1cc(C(N)=O)ccc1C(N)=O (stereo unspecified)
127 | Cc1ccc(C(=O)Nc2nc(C(Cl)(Cl)Cl)ns2)cc1

melting point [°C] | SMILES
63 to 64 | C=C1CCC(C2OC(=O)NC2=O)CC1 (stereo unspecified)
138 to 140 | Cc1c(C#N)n(-c2ccc(Cl)cc2)c(=O)n1C
263 to 265 | O=[N+]([O-])c1ccc2nc(-c3ccc4c(c3)OCCO4)ncc2c1
97 to 98 | N#Cc1ccccc1-c1ccc(CCl)cn1
115 to 117 | CCCCCCCCCCCCCCCCCCOc1cc(N)cc(NC(C)=O)c1
160 to 161 | Nc1nc(-c2ccc(CN3CCCCCC3)s2)n[nH]1
158 | CCCCCCCCCCCC(=O)NNC(=O)c1ccccc1O
229 to 230 | COc1cc(Nc2nccc(-c3sc(-c4cccnc4)nc3C)n2)cc(OC)c1
220 to 221 | COc1nc(C)c(N2CCCn3c2nc2c(Cl)ccc(C(O)(C4CC4)C4CC4)c23)c(C)n1
274 to 276 | Cc1nn(Cc2ccccc2)c2c1c(=O)n(-c1ccccc1)c1ncccc21
> 260 | O=C1c2ccccc2C(=O)c2sc(-c3ccc(CO)o3)nc21
155 to 157 | O=[N+]([O-])c1ccc(S(=O)(=O)C2COCC2Br)cc1 (stereo unspecified)
49 to 55 | OCCNCCOCCOCCNCCO
201 to 202 | CC(C)(O)c1nc(CO)n(Cc2ccc(-c3ccccc3-c3nnn[nH]3)cc2)c1C(=O)O
208 to 209 | O=C(O)C1=Cc2cc(-c3ccccc3)ccc2CC1
102 to 104 | O=[N+]([O-])c1ccc2c(ccn2Cc2ccccc2)c1
126 to 144 | CCOC(=O)/C(=N\OCCN)c1csc(NC(c2ccccc2)(c2ccccc2)c2ccccc2)n1
140 to 142 | Cc1ccccc1-n1nnc2cnc3ccccc3c21
277 | NS(=O)(=O)c1cccc(-c2noc(-c3cnn4c(C5CC5)cc(-c5ccc(C(F)(F)F)cc5)nc34)n2)c1
174 to 175 | CC(C)(OCc1nn(Cc2ccccc2)c2ccccc12)C(=O)NNC(N)=O
204 to 205 | Nc1ccc(NC(=O)c2ccc(CNC(=O)OCc3cccnc3)cc2)cc1
174 to 176 | CSc1ncncc1C1c2cc(NS(=O)(=O)c3ccccc3)ccc2CC1(C)C (stereo unspecified)
187 | Cc1nccn1-c1cccc(C2=Nc3ccc(-c4ccccc4F)cc3NC(=O)C2)c1
118 to 120 | CC(C)C(C)C=CC(C)C1CCC2C3CC(=O)C4CC=CCC4(C)C3CCC12C (stereo unspecified)

melting point [°C] | SMILES
90.5 to 91.5 | CN(C)CCSc1nnc(SCN2C(=O)c3ccccc3S2(=O)=O)s1
105 to 110 | Cc1noc(NS(=O)(=O)c2ccccc2-c2ccc(-c3ncco3)cc2CN2CCN(C(C)C)C2=O)c1C
176 to 188 | O=C(O)c1cc2cc(Cl)ccc2nc1N[C@@H](Cc1ccc(O)cc1)C(=O)O
71 to 72 | c1ccc(C(N=C2CCCCC2)c2ccccc2)cc1
63 to 65 | COc1cccc(Sc2ccccc2CC(=O)O)c1
> 300 | CS(=O)(=O)C(S(C)(=O)=O)S(=O)(=O)O
140 to 141 | CNC(=O)c1ccc2[nH]ccc2c1
173 | CNc1cc(Oc2ccc3ncccc3c2)ncn1
138 to 139 | Cc1oc(-c2ccccc2)nc1/C=C/c1ccc(Br)cc1
207 | Cc1cccc(NC(=O)CN2C(=O)c3ccccc3C2=O)c1
228 to 230 | CCOC(=O)c1cnc2scnn2c1=O
92 to 94 | COc1ccc(S(=O)(=O)N[C@@H](C(=O)OCc2ccccc2)C(C)C)cc1
206 to 207 | O=C(CCc1cccc(C(F)(F)F)c1)NNC(=O)c1ccc2ncsc2c1
200 to 203 | O=C1Nc2cc(C(F)(F)F)cc(C(F)(F)F)c2C1=O
87 to 89 | CC(C)(C)OC(=O)c1ccc[nH]1
175 to 177 | NNc1nc(C(F)(F)F)nc(-c2ccc(F)cc2)c1-c1ccccc1
148 to 150 | CCCN1C(=O)c2cnc(-c3ccccc3)nc2N(C(=O)CN2CCN(C)CC2)c2ccccc21
268 to 269 | Cc1cc([N+](=O)[O-])sc1C(=O)c1sc(Nc2ccc(S(N)(=O)=O)cc2)nc1N
71 to 72 | NC(=O)c1ccccc1N1CCC1COc1cncc(F)c1 (stereo unspecified)
78 to 79 | CC(C)(C)OC(=O)N1CCOc2ccccc21
98 to 100 | CC(=O)c1ccc(C(=O)N2Cc3cccn3Cc3ccccc32)c(Cl)c1
97 to 99 | CC(C)NCC(O)Cc1ccc([N+](=O)[O-])c(C2OCCO2)c1 (stereo unspecified)
170 to 172 | C#CCOc1ccc2c(c1)c(-c1ccc(C(C)C)cc1)nc(=O)n2Cc1cccc(NC(=O)CCl)c1
206 to 208 | COc1ccc(CC2CCN(C(=O)C(=O)Nc3ccc(NS(C)(=O)=O)cc3)CC2)cc1

melting point [°C] | SMILES
47 to 52 | C[Si](C)(C)CCOCn1c(Br)nc(C#N)c1C#N
184 to 188 | CC(=O)NC[C@H]1CN(c2cc(F)c(N3CCC(n4nnc(N5CCN(C)CC5)n4)CC3)c(F)c2)C(=O)O1
176 to 177 | O=C(NOCc1ccccc1)c1cc(F)c(Cl)nc1Cl
175 to 177 | CCOC(=O)c1cnc(Nc2ccccc2OCC(C)C)[nH]c1=O
182 to 184 | COC(=O)C1=C(C)NC(C)=C(c2nc(N(C)Cc3ccccc3)no2)C1c1cccc([N+](=O)[O-])c1 (stereo unspecified)
140 to 141 | Cc1sc(N)c(C(=O)c2ccccc2)c1C
233 to 234 | CC(C)c1ccc(-c2ccnc(-c3cccc(C(=O)O)c3)c2)cc1
254 | CCCC1=NN(c2ccc(C(=O)O)cc2)C(=O)C1=CNc1ccccc1CC
158 to 161 | Cc1n[nH]c2cc(-c3nn(C(C)c4oc5ccccc5c(=O)c4-c4cccc(F)c4)c4ncnc(N)c34)ccc12 (stereo unspecified)
90.5 to 92 | Cc1ccc(C)c(OCc2ccccc2C(=O)c2ccon2)c1
147 to 149 | CC1(C)CN(CC2Cc3ccccc3O2)c2nc(-c3ccncc3)cc(=O)n2C1 (racemic)
169 to 170 | CCOC(=O)C(=O)Cc1c[nH]c2ccc(OCc3ccccc3)cc12
75 to 77 | CCCCCN1C(=O)C(c2ccc3c(c2)OCO3)c2cccnc21 (stereo unspecified)
148 to 150 | COCOc1cc(C=O)c2nc3cccc(OCOC)c3nc2c1
208 to 210 | OC(Cn1ccnc1)(c1ccc(Cl)cc1)c1ccc(Cl)cc1
115 | Cc1nn(-c2ccc(Cl)cc2F)c(=O)[nH]1
79 to 80 | CC(=O)COc1cccc2ccc(OC(C)=O)nc12
197 to 202 | CCCCCC(C)N(Cc1ccnc2ccccc12)C(Nc1ccc(OC)cc1OC)=C1C(=O)OC(C)(C)OC1=O (stereo unspecified)
55 to 61 | CC(C)NC(C)CCc1nc(Cn2cnc3c2c(=O)n(C)c(=O)n3C)no1 (stereo unspecified)
180 to 183 | COc1cc(OC)nc(C2(OC)OC(=O)c3c(Cl)cccc32)n1 (stereo unspecified)
154 to 155 | CC(C)CCCC(C)C1CCC2C3=C(CCC21C)C1(C)CCC(O)C(C)(C)C1CC3 (stereo unspecified)
148 | CCOc1ccc(C=C(CS)C(=O)NCCC(=O)O)cc1
202 to 203 | Cc1c(NC(=O)c2ccc(-c3ccc4c(c3)CCO4)cc2F)ccc2cc(CN3CCCCC3)cnc12
220 | O=C1CC(c2cccc(-n3ccnc3)c2)=Nc2ccc(-c3ccc(F)cc3O)cc2N1

SMILES | melting point [°C]
CC12C=CC(=O)C=C1C(N)CC1C2CCC2(C)C(=O)CCC12 (stereo unspecified) | 186 to 191
O=C1CC(c2c(Cl)cccc2Cl)CN1 (stereo unspecified) | 153 to 154
O[C@@H]1CNC[C@H](c2ccc(C(F)(F)F)cc2)C1 (relative stereo) | 189 to 192
CC12CC(=CO)C(=O)C=C1CCC1C2CCC2(C)C1C=CC2(C)O (stereo unspecified) | 176
Nc1cc(C2=NOC(c3cc(Cl)cc(Cl)c3)(C(F)(F)F)C2)ccc1C(=O)NCC(F)(F)F (stereo unspecified) | 78 to 79

— a melting point compilation (Tetko et al.; mined from patent text by program, amines drawn as free bases though some values may be those of a salt)
